Results from a melting point compilation (Tetko et al.; mined from patent text by program, amines drawn as free bases though some values may be those of a salt).

For CC(C)(C)OC(=O)NNC(=O)N1CCN(NC(=O)OCc2ccccc2)C1=O, the melting point was 195 to 198 °C.
Compound O=C(O)c1cn(C2CC2)c2nc(N3Cc4ccc(CO)cc4C3)c(F)cc2c1=O has a melting point greater than 300 °C.
Work on Nc1nc(-c2ccc(Cl)cc2C(=O)c2ccccc2)c(CN2C(=O)c3ccccc3C2=O)s1 yielded a melting point of 253 to 255 °C.
With CCOP(=O)(CCNC(=O)c1c(CC)nc2cc(OC)c(OC)cc2c1-c1ccc(OC)c(OC)c1)OCC the melting point was 157 to 158 °C.
Compound COc1ccc(Nc2nc3ccccc3c(=O)[nH]2)c(C)c1 has a melting point of 270 to 272 °C.
Nc1nc(N)nc(N(c2ccc(OCOc3ccc(N(c4nc(N)nc(N)n4)c4nc(N)nc(N)n4)cc3)cc2)c2nc(N)nc(N)n2)n1 gave a melting point greater than 300 °C.
In the case of CCCS(=O)(=O)NC(=O)C[C@H]1O[C@H](c2cccc(OC)c2OC)c2cc(Cl)ccc2N(CC(C)(C)CO)C1=O, the melting point is reported as 135 to 137 °C.
CCCOc1nc2c(Cl)scc2c(=O)n1CCC gave a melting point of 93 to 95 °C.
Compound CC(C)CCCOc1nc(N)c([N+](=O)[O-])cc1Cl has a melting point of 53 to 54 °C.
For CC(C)(C)c1cc(CNn2ccnc2)cc(C(C)(C)C)c1O, the melting point was 171 to 174 °C.
For CCCCCN1C(=O)C(CO)(c2ccc3c(c2)OCO3)c2ccccc21 (stereo not drawn), the melting point was 110 to 113 °C.
Compound CN(CCc1ccc(O)cc1)[C@H]1CC[C@H](c2ccccc2)CC1 has a melting point of 97 to 105 °C.
Work on CCCc1cc(-c2cc(OC)c3c(C)c(C)c(=O)oc3c2)on1 yielded a melting point of 94 °C.
CC(=O)NCC1CN(c2ccc(N3CCN(C4=NC(=O)CS4)CC3)c(F)c2)C(=O)O1 (stereo not drawn) showed a melting point of 225 to 227 °C.
Compound O=c1[nH]c2nc(C(F)(F)F)cc(C(F)(F)F)c2cc1-c1ccncc1 has a melting point of 250 to 270 °C.
Compound CN1CCC(C2Cc3c(O)cccc3C(=O)N2)CC1 (stereo not drawn) has a melting point of 216 to 218 °C.
CCCCCCOc1nc(N)c2ncn(C3CCCCC3)c2n1 showed a melting point of 57 to 60 °C.
CCC(CC)C(=O)Nc1ccc2ncn3c(=O)c(C(=O)O)cnc3c2c1 showed a melting point of 295 to 298 °C.
In the case of CC(C)CCN1C(=O)C(NC(=O)Nc2ccccc2)C(=O)N(CC23CC4CC(CC(C4)C2)C3)c2ccccc21 (stereo not drawn), the melting point is reported as 156 to 157 °C.
CCCCCCCCOc1ccc(C(=O)Oc2ccc3c(c2)C(C)c2cc(O)ccc2-3)cc1 (stereo not drawn) showed a melting point of 140 to 143 °C.
CCCCCCCCc1ncc(-c2ccc(OC(=O)[C@H]3CCCO3)cc2)cn1 showed a melting point of 68 °C.
For COc1ccc(Oc2ccc(C(=O)N(C3CCCC3)C3CCCC3)cc2)cc1OC, the melting point was 180 °C.
COc1nc(C)cnc1NS(=O)(=O)c1cccnc1-c1ccc(COCCO)cc1 gave a melting point of 106 to 108 °C.
Work on CC(C)C[C@H](NC(=O)OCC1CCCCC1)C(=O)N[C@@H](C(C)C)[C@@H](O)c1c(-c2ccc(F)cc2)c1=O yielded a melting point of 86 to 90 °C.
In the case of CCCC1=CC(NC)=Nc2ccc(Cl)cc2C(c2ccccc2)=[N+]1[O-], the melting point is reported as 104 to 106 °C.
With Cc1oc(-c2ccccc2)nc1COc1ccc(COc2nn(Cc3ccc(OCc4nc(-c5ccccc5)oc4C)cc3)cc2CO)cc1 the melting point was 157 to 158 °C.
Work on CC=CN(C=CC)c1ccc2[nH]c3cnc(C(=O)OCC)cc3c2c1 yielded a melting point of 235 to 238 °C.
COc1cc(Nc2c(C#N)cnc3cc(/C=C/CCN4CCOCC4)ccc23)c(Cl)cc1Cl showed a melting point of 88 to 89 °C.
Compound COCCn1nc2c(N)nc3ccccc3c2c1CC(C)(C)C(N)=O has a melting point of 225 to 226 °C.
CCCCCCCC[C@H](N[C@@H](C)C(=O)N1C(=O)N(C)C[C@H]1C(=O)O)C(=O)OCC showed a melting point of 85 to 86 °C.
Work on Nc1cc(OCc2ccccc2)ccc1NC(=O)c1ccc(OCc2ccccc2)c(C23CC4CC(CC(C4)C2)C3)c1 yielded a melting point of 166 to 170 °C.
With CCOC(=O)C(=O)Cc1c(OCc2ccccc2)cc(C)cc1[N+](=O)[O-] the melting point was 80 to 82 °C.
N#Cc1cnn(-c2ccc(F)cc2F)c1Cl showed a melting point of 120 to 122 °C.
For OCCC(c1ccccc1)C(O)(c1ccccc1)c1ccccc1 (stereo not drawn), the melting point was 112 to 113 °C.
Work on CN1C(=O)C(Br)=C(c2cn(C(=O)OC(C)(C)C)c3ccc(OCc4ccccc4)cc23)C1=O yielded a melting point of 155 °C.
In the case of O=c1c2c(CCc3ccncc3)n[nH]c2c2cccnc2n1-c1cccc([N+](=O)[O-])c1, the melting point is reported as 161 to 165 °C.
C=CCN1C2CCC3C1CCC2N3C(c1ccc(C(=O)N2CCCCC2)cc1)c1cccc(O)c1 (stereo not drawn) gave a melting point of 70 to 73 °C.
For C=CS(=O)(=O)CC(COCCCCCCCCCCCCCCCCCC)OC (stereo not drawn), the melting point was 47 to 49 °C.
For CNC(=O)ON=C(SCC(N)=O)C(C)(C)[N+](=O)[O-], the melting point was 125 to 127 °C.
In the case of CCCCCCCCCCCCCCCC(=O)NCCCC, the melting point is reported as 74 to 76 °C.
Cc1cc(C)c(COc2cccnc2NC(=S)Nc2ccc(Cl)cc2)c(C)c1 showed a melting point of 180 to 182 °C.
CC(C)(C)NC(=O)c1ccc(Cl)cc1 gave a melting point of 136 to 137 °C.
Work on O=C(Nc1cccc(C(F)(F)F)c1)C(=O)N1CCC(Cc2ccccc2)CC1 yielded a melting point of 87 to 89 °C.
In the case of O=[N+]([O-])c1ccc(Cl)c(C(=S)Nc2ccc(Oc3ncc(C(F)(F)F)cc3Cl)cc2)c1, the melting point is reported as 186 to 187 °C.
CC(=O)SCCC(=O)CCC(=O)O showed a melting point of 72 to 74 °C.
Work on COc1cc2c(cc1OCc1ccccc1)CC(C)(C)N(C(=O)c1cc(OC)c(OC)c(OC)c1)C2C (stereo not drawn) yielded a melting point of 175 to 177 °C.
Compound O=C(O)c1ccc(Cl)c2c1NCCS2 has a melting point of 220 °C.
Compound CCCCC(=N)NC(=O)Nc1ccccc1O has a melting point of 173 to 175 °C.
For CCOC(=O)c1c(OC)c([N+](=O)[O-])cn1C, the melting point was 145 to 147 °C.
Work on CN1CCOc2ccc(S(=O)(=O)n3c(Cc4ccc(C(=O)O)cc4)cc4cc(C(F)(F)F)ccc43)cc21 yielded a melting point of 206 °C.
CCOC(=O)Cc1ccc(CC2(CNS(=O)(=O)c3ccc(Cl)cc3)CCCC2)cc1 showed a melting point of 117 to 119 °C.
Work on O=C1OC(CO)CN1c1ccc(O)cc1 (stereo not drawn) yielded a melting point of 189 °C.
For COC(=O)C(Oc1ccc(Cl)cc1)c1ccc(Oc2ccccc2)cc1 (stereo not drawn), the melting point was 99 to 102 °C.
With CCOC(=O)c1cc(N)nn1C the melting point was 57 to 58 °C.
Compound Cc1c(CN2C(=O)c3ccccc3C2=O)cccc1C(F)(F)C(F)(F)c1ccccc1 has a melting point of 135 to 137 °C.
Compound Cc1nc(NC(=O)c2cnccn2)c(Br)c(C)c1Br has a melting point of 166 °C.
In the case of CC1CC(C)(C)C(=O)C=C1Cc1ccc(Cl)cc1 (stereo not drawn), the melting point is reported as 76 to 77 °C.
COC(=O)COc1c(C)cc(SCc2sc(-c3ccc(C(F)(F)F)cc3)nc2C)cc1C gave a melting point of 104 to 105 °C.
O=C1CCCN1[C@H]1CC[C@@H](C(=O)O)CC1 gave a melting point of 188 °C.
With Cn1nc(-c2cc(CO)c(Cl)cc2F)c(Cl)c1C(F)(F)F the melting point was 90 °C.
In the case of C[C@@H](n1cncn1)[C@](O)(Cn1cncn1)c1ccccc1F, the melting point is reported as 105 to 106 °C.
Work on COP(=O)(CC1(O)O[C@H](COCc2ccccc2)[C@@H](OCc2ccccc2)[C@H](OCc2ccccc2)[C@H]1OCc1ccccc1)OC (stereo partly drawn) yielded a melting point of 112 to 113 °C.
Compound O=c1[nH]c2cc(C(F)(F)F)ccc2c(-c2cc(Cl)ccc2O)c1NS(=O)(=O)C(F)(F)F has a melting point of 267 to 270 °C.
In the case of CC(C)(C)OC(=O)N1CCN(c2cccc(N)c2)CC1, the melting point is reported as 218 °C.
For O=C(O)C1=C(CCl)CS[C@@H]2[C@H](NC(=S)Cc3cc(Cl)ccc3Cl)C(=O)N12, the melting point was 125 °C.
Compound C[C@H](O)CNc1nc(Oc2ccc(F)cc2F)cc2[nH]nc(-c3ccccc3Cl)c12 has a melting point of 171 to 172 °C.
With COc1cccc2c1nc(C(F)F)n2-c1nc(N2CCNCC2)nc(N2CC3CCC(C2)O3)n1 the melting point was 221 to 223 °C.
For O=C(Nc1ccc2ccc(Cl)nc2n1)c1ccccn1, the melting point was 319 °C.
CCCc1ccccc1OCCCCCOc1coc(C(=O)OC)cc1=O showed a melting point of 49 to 50 °C.
With O=C(O)[C@H](CCCCO)N1C(=O)c2ccccc2C1=O the melting point was 162 to 163 °C.
Compound N#Cc1cc(-c2ccoc2)c2ccc(OCc3cncc(-c4ccccc4)c3)cc2c1 has a melting point of 138 to 140 °C.
Nc1ccccc1-c1cc2ccc(Cl)cc2[nH]c1=O gave a melting point of 155 to 157 °C.
In the case of O=c1c(Nc2ccc(Cl)cc2)nc2ccccc2n1-c1ccc(Cl)cc1, the melting point is reported as 258 to 260 °C.
In the case of Fc1ccc(-c2[nH]c(C3CCCNC3)nc2-c2ccncc2)cc1 (stereo not drawn), the melting point is reported as 252 to 254 °C.
With Cc1c(Br)c(C)c(Cc2ccc(C(C)C)cc2)c2c1CCO2 the melting point was 95 to 96 °C.
CC(C)(C)c1nc(Nc2nc(C(=O)O)cs2)nc(C(C)(C)C)c1O gave a melting point of 251 to 253 °C.
Cc1noc(NC(=O)CCl)c1C showed a melting point of 97 to 100 °C.
In the case of CC1(C)Cc2cc(C(=O)O)sc2C1, the melting point is reported as 170 to 172 °C.
For O=C(CNC(=O)c1nc2ccc(Oc3cccc(C(F)(F)F)c3)cc2cc1OCc1ccccc1)OCc1ccccc1, the melting point was 103 to 105 °C.
For Brc1cccc2ncn3ccnc3c12, the melting point was 215 to 216 °C.
Compound COc1ccccc1C1(O)C(O)CCC2CNCC21 (stereo not drawn) has a melting point of 168 °C.
Work on COc1nc(N)nc2nc(/C=C3/CC3(CO)CO)[nH]c12 yielded a melting point of 188 to 189 °C.
CC(=O)n1cc(-c2ccccc2)c(-n2cnnc2)n1 showed a melting point of 165 to 168 °C.
In the case of COC(=O)CCCc1ccc(S(=O)(=O)Nc2ccc(Cl)cc2)cn1, the melting point is reported as 80 to 81 °C.
For CN1CCC(c2nn(-c3ccc(C(F)(F)F)cc3)c3ccc(F)cc23)CC1, the melting point was 126 to 128 °C.
CCOC(=O)c1nc2ccc([N+](=O)[O-])cc2c(O)c1C(=O)OCC gave a melting point of 264 °C.
In the case of N=C(N)NCc1ccc(N)c(I)c1, the melting point is reported as 135 to 137 °C.
For CCCc1ccccc1OCCCCCOc1ccc2c(=O)cc(C(=O)OCC)oc2c1CCC, the melting point was 73 to 75 °C.
Compound CSC(=S)OC(C(=O)O)c1ccccc1 (stereo not drawn) has a melting point of 109 to 110 °C.
For CC(=O)c1cccc(-c2ccc3nc(-c4ccc(Cl)cc4)cn3c2)c1, the melting point was 173 to 175 °C.
Compound CC(=O)NCC1CN(c2ccc(N3CC4CCCN(C(=O)OCc5ccccc5)C4C3)c(F)c2)C(=O)O1 (stereo not drawn) has a melting point of 74 to 76 °C.
For CC(CC(=O)OC(C)C)N=c1sc2ccccc2s1 (stereo not drawn), the melting point was 44 °C.
For CN1CCNC1=NC(c1ccccc1)c1ccccc1, the melting point was 226 to 228 °C.
O=c1cc(CO)oc2cc(OCCCCl)ccc12 gave a melting point of 110 to 112 °C.
With CC(C)(C)c1ccc(NC(Nc2ccc(C(C)(C)C)cc2)Nc2ccc(C(C)(C)C)cc2)cc1 the melting point was 157 to 158 °C.
CCOC=C(C=O)c1ccc(Br)cc1 showed a melting point of 152 to 156 °C.
For CC(C)Oc1c(C(N)=O)oc2ccccc12, the melting point was 82 to 83 °C.
With COc1ccc(Cn2c(=O)[nH]c(=O)c3c2nc(C(C)(C)C)n3Cc2ccccc2)cc1 the melting point was 170 to 172 °C.
